Results as given in PubChem BioAssay (NCI).
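Tested at 5 concentrations; 48 h exposure; 96-well plates; endpoints linearly interpolated, else capped at highest concentration. GI50 = concentration required for 50% inhibition of growth. TGI marks complete inhibition of growth.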

Experiments:
Experiment in all cases: NCI-60 cell line screen, 48 h
SK-MEL-2 melanoma = system: SK-MEL-2 melanoma
HCT-116 colon = system: HCT-116 colon
HCC-2998 colon = system: HCC-2998 colon
LOX IMVI melanoma = system: LOX IMVI melanoma
A549 NSCLC = system: A549 NSCLC
HOP-62 NSCLC = system: HOP-62 NSCLC
SNB-75 CNS = system: SNB-75 CNS
UACC-257 melanoma = system: UACC-257 melanoma
COLO 205 colon = system: COLO 205 colon
SN12C renal = system: SN12C renal

SMILES: COc1cc2c3c(n(CCCN4CCSCC4)c(=O)c2cc1OC)-c1cc2c(cc1C3=O)OCO2
- GI50 (SK-MEL-2 melanoma): 16.8 µM
- TGI (SK-MEL-2 melanoma): 36.4 µM
- GI50 (HCT-116 colon): 73.1 µM
- TGI (HCT-116 colon): > 100 µM
- GI50 (HCC-2998 colon): 35.1 µM
- TGI (HCC-2998 colon): > 100 µM
- GI50 (LOX IMVI melanoma): > 100 µM
- TGI (LOX IMVI melanoma): > 100 µM
- GI50 (A549 NSCLC): > 100 µM
- TGI (A549 NSCLC): > 100 µM
- GI50 (HOP-62 NSCLC): 26.2 µM
- TGI (HOP-62 NSCLC): 73.7 µM
- GI50 (SNB-75 CNS): 12.9 µM
- TGI (SNB-75 CNS): 27.5 µM
- GI50 (UACC-257 melanoma): > 100 µM
- TGI (UACC-257 melanoma): > 100 µM
- GI50 (COLO 205 colon): > 100 µM
- TGI (COLO 205 colon): > 100 µM

SMILES: Nc1c(-c2nc3ccccc3s2)[n+]([O-])c2ccccc2[n+]1[O-]
- TGI (SK-MEL-2 melanoma): 74.9 µM
- TGI (HCT-116 colon): 63.9 µM
- TGI (HCC-2998 colon): > 100 µM
- TGI (A549 NSCLC): > 100 µM
- TGI (HOP-62 NSCLC): 78.5 µM
- TGI (SNB-75 CNS): 76.5 µM
- TGI (UACC-257 melanoma): > 100 µM
- TGI (COLO 205 colon): > 100 µM

SMILES: Nc1nc(-c2ccccc2)cc(-c2cc(Cl)ccc2O)n1
- TGI (HCT-116 colon): > 100 µM
- TGI (HCC-2998 colon): > 100 µM
- TGI (SN12C renal): > 100 µM
- TGI (LOX IMVI melanoma): > 100 µM
- TGI (A549 NSCLC): > 100 µM
- TGI (HOP-62 NSCLC): 85.5 µM
- TGI (SNB-75 CNS): 69 µM
- TGI (UACC-257 melanoma): > 100 µM
- TGI (COLO 205 colon): > 100 µM

SMILES: CC1(C)OC2OC(COC(=O)C(c3ccccc3)c3ccccc3)C3OC(C)(C)OC3C2O1 (stereo not drawn)
- TGI (SK-MEL-2 melanoma): > 100 µM
- GI50 (HCC-2998 colon): > 100 µM
- TGI (HCC-2998 colon): > 100 µM
- TGI (SN12C renal): > 100 µM
- TGI (LOX IMVI melanoma): > 100 µM
- TGI (A549 NSCLC): > 100 µM
- GI50 (HOP-62 NSCLC): > 100 µM
- TGI (HOP-62 NSCLC): > 100 µM
- TGI (SNB-75 CNS): 87.2 µM
- TGI (COLO 205 colon): > 100 µM

SMILES: CC(=O)c1c(O)c2c([nH]c1=O)CCCC2
- TGI (HCC-2998 colon): 53.4 µM
- TGI (SN12C renal): 45.1 µM
- TGI (LOX IMVI melanoma): > 100 µM
- TGI (A549 NSCLC): > 100 µM
- TGI (HOP-62 NSCLC): 46.5 µM
- TGI (SNB-75 CNS): 29 µM
- TGI (COLO 205 colon): > 100 µM

SMILES: COc1cc(OC)c(/C=C/C(=O)c2c(N)cc(OC)cc2OC)c(OC)c1
- GI50 (SK-MEL-2 melanoma): 0.528 µM
- TGI (SK-MEL-2 melanoma): > 100 µM
- GI50 (HCT-116 colon): 0.384 µM
- TGI (HCT-116 colon): > 100 µM
- GI50 (HCC-2998 colon): 1.25 µM
- TGI (HCC-2998 colon): > 54.1 µM
- GI50 (SN12C renal): 0.719 µM
- TGI (SN12C renal): > 100 µM
- GI50 (LOX IMVI melanoma): 0.537 µM
- TGI (LOX IMVI melanoma): > 100 µM
- GI50 (A549 NSCLC): 0.733 µM
- TGI (A549 NSCLC): > 100 µM
- GI50 (HOP-62 NSCLC): 0.724 µM
- TGI (HOP-62 NSCLC): > 100 µM
- GI50 (SNB-75 CNS): 0.338 µM
- GI50 (COLO 205 colon): 2.94 µM
- TGI (COLO 205 colon): > 45.1 µM

SMILES: CCOC(=O)COc1cccc2occc(=O)c12
- TGI (SK-MEL-2 melanoma): > 100 µM
- TGI (HCT-116 colon): > 100 µM
- TGI (HCC-2998 colon): > 100 µM
- TGI (SN12C renal): > 100 µM
- TGI (LOX IMVI melanoma): > 100 µM
- TGI (A549 NSCLC): > 100 µM
- TGI (HOP-62 NSCLC): > 100 µM
- TGI (UACC-257 melanoma): > 100 µM
- TGI (COLO 205 colon): > 100 µM

SMILES: O=CC(O)C(O)C(OC1OC(CO)C(O)C(O)C1O)C(O)CO (stereo not drawn) (tested in a mixture with another compound)
- TGI (SK-MEL-2 melanoma): > 100 µM
- TGI (HCT-116 colon): > 100 µM
- TGI (SN12C renal): > 100 µM
- TGI (A549 NSCLC): > 100 µM
- TGI (HOP-62 NSCLC): > 100 µM
- TGI (SNB-75 CNS): > 100 µM
- TGI (UACC-257 melanoma): > 100 µM
- TGI (COLO 205 colon): > 100 µM

SMILES: O=C(CN(/C=C/C(=O)C(F)(F)F)c1ccccc1)c1ccc(F)cc1
- GI50 (SK-MEL-2 melanoma): 26.3 µM
- TGI (SK-MEL-2 melanoma): 70.1 µM
- GI50 (HCT-116 colon): 25.3 µM
- TGI (HCT-116 colon): 88.1 µM
- GI50 (HCC-2998 colon): 17.8 µM
- TGI (HCC-2998 colon): 41.6 µM
- GI50 (SN12C renal): 21.2 µM
- TGI (SN12C renal): 54.9 µM
- GI50 (LOX IMVI melanoma): 15.5 µM
- TGI (LOX IMVI melanoma): 37.6 µM
- GI50 (A549 NSCLC): 35.4 µM
- TGI (A549 NSCLC): > 100 µM
- GI50 (HOP-62 NSCLC): 75.1 µM
- TGI (HOP-62 NSCLC): > 100 µM
- GI50 (UACC-257 melanoma): 19.1 µM
- TGI (UACC-257 melanoma): 93.2 µM
- GI50 (COLO 205 colon): 25 µM
- TGI (COLO 205 colon): 58.3 µM

SMILES: COc1ccc2c3c(c(C(=O)O)oc13)C(CCC(=O)O)CC2 (stereo not drawn)
- TGI (HCT-116 colon): > 100 µM
- TGI (HCC-2998 colon): > 100 µM
- TGI (SN12C renal): > 100 µM
- TGI (LOX IMVI melanoma): > 100 µM
- TGI (A549 NSCLC): > 100 µM
- TGI (HOP-62 NSCLC): > 100 µM
- TGI (SNB-75 CNS): > 100 µM
- TGI (UACC-257 melanoma): > 100 µM
- TGI (COLO 205 colon): > 100 µM
